These results are taken from ChEMBL document CHEMBL3352051, “Isolation, structure determination and cytotoxicity studies of tryptophan alkaloids from an Australian marine sponge Hyrtios sp” (Bioorg Med Chem Lett, 2014).

In experiment [1] the test system is LNCaP. Description: Cytotoxicity against human LNCAP cells after 72 hrs by Alamar Blue assay. It counts as functional, cell-based. In general terms: The colour change of resazurin is a common sign of viable cells or microbes.
The next experiment concerns NFF. Kind of experiment: Cytotoxicity against human NFF cells after 72 hrs by Alamar Blue assay. It counts as cell-based.
The test system of experiment [2] is LNCaP. Kind of experiment: Selectivity index, ratio of IC50 for human NFF cells to IC50 for human LNCaP cells. In kind it is functional.
The next experiment has as its system MCF7. Description: Antiproliferative activity against human MCF7 cells. It counts as functional, cell-based.
A further experiment concerns Malme-3M. Description: Antiproliferative activity against human MALME-3M cells. In kind it is functional, cell-based.
Experiment [3] can be described thus: Antiproliferative activity against human OVCAR3 cells. The note with it: OVCAR-3. It counts as functional, cell-based.

Regarding `O=C(O)c1ccccc1-n1ccc2c([nH]c3ccccc32)c1=O`, the IC50 came out at 44.9 µM in the experiment on LNCaP [1] and 47.6 µM in the experiment with NFF. In addition, the “Ratio IC50” value with LNCaP [2] amounted to 1.06.

For `COc1cccc2c1C(=O)c1c(O)c3c(c(O)c1C2=O)C[C@@](O)(C(=O)CO)C[C@@H]3O[C@H]1C[C@H](N)[C@H](O)[C@H](C)O1` [DOXORUBICIN], the IC50 with LNCaP [1] was 0.0135 µM; with NFF, 0.126 µM. The “Ratio IC50” value in the experiment on LNCaP [2] is given as 8.97.

`O=C(O)c1ccccc1-[n+]1ccc2c(c1)[nH]c1ccccc12.[Cl-]` [RETICULATATE]: the IC50 in the experiment on LNCaP [1] stood at 25.9 µM; with NFF it was 19.8 µM. Also, the “Ratio IC50” value in the experiment with LNCaP [2] came out at 0.77.

Turning to `O=C1c2ccccc2-[n+]2ccc3c([nH]c4ccccc43)c21` [FASCAPLYSIN], the IC50 with LNCaP [1] turned out to be 0.54 µM; with NFF it was 0.339 µM. Also, the “Ratio IC50” value in the experiment on LNCaP [2] turned out to be 0.63. Besides, the EC50 was found to be 0.14 µg/mL in the experiment on MCF7, 0.03 µg/mL in the experiment with Malme-3M and 0.16 µg/mL in experiment [3].

For the molecule `O=C1c2ccccc2-n2c1c1[nH]c3ccccc3c1cc2=O`, the IC50 in the experiment on LNCaP [1] worked out at 22.9 µM; with NFF, 32.1 µM. Further, the “Ratio IC50” value in the experiment with LNCaP [2] amounted to 1.4.

The term IC50 denotes the concentration that gives 50% inhibition. A high value points to weaker potency. As usually defined, the EC50 is the midpoint of the concentration-response curve. Lower therefore signals a more potent agent.
